These compounds were tested against T1, human Nav1.6 (hNav1.6) (Homo sapiens, UniProt Q9UQD0) (assay: Modulation of late sodium current (INaL), PatchXpress electrophysiology, ATX-II evoked). Details: HEK293; 1 μM compound; HEK-293 cells expressing recombinant human Nav1.6; late current evoked by 300 nM ATX-II; read-out: INaL v1.6 (1 μM, % Inhibition).
T1 construct: expressed in transfected cells; host or cells: HEK-293 (G418 selection)
Format: cell-based
Method: Functional characterization of exemplary compounds to modulate INaL expressed by the Nav1.6 voltage-gated sodium channel was accomplished using the PatchXpress™ high throughput electrophysiology platform (Molecular Devices, Sunnyvale, CA). HEK-293 cells expressing recombinant, human Nav1.6 (hNav1.6) were grown in DMEM/high-glucose Dulbecco's modified, 10% FBS, 2 mM sodium pyruvate, 10 mM HEPES and 400 μg/mL G418. Cells were grown to 50%-80% confluency prior to harvesting. Trypsinized cells were washed, allowed to recover for 1 hour and then resuspended in extracellular recording solution at a concentration of 1×10^6 cells/ml. The onboard liquid handling facility of the PatchXpress was used for dispensing cells and applying test compounds. Nay late currents were evoked by the application of 300 nM ATX-II. INaL was evoked by depolarizing pulses to 0 mV for 200 ms from a non-inactivating holding potential (e.g., −120 mV) at a frequency of 0.1 Hz. INaL amplitude and stability were determined by analyzing the mean current amplitude over the final 20 ms of the test pulse. Following steady state block with exemplary compounds (e.g., as described herein), a Na^+ free solution containing an impermeant cation (e.g., Choline or NDMG) was added to confirm the identify of the sodium current.
Results from this assay relating to percent inhibition of INaL at hNaV1.6 (measured using a procedure similar to described above but using HEK-293 cells expressing recombinant, human Nay 1.6 (h Nay 1.6) at 1 μM are summarized in Table 1 below. In this table, “A” indicates inhibition of less than 30%; “B” indicates inhibition of between about 30% to about 70%; and “C” indicates inhibition of greater than 70%.

T1 sequence (Q9UQD0 whole entry): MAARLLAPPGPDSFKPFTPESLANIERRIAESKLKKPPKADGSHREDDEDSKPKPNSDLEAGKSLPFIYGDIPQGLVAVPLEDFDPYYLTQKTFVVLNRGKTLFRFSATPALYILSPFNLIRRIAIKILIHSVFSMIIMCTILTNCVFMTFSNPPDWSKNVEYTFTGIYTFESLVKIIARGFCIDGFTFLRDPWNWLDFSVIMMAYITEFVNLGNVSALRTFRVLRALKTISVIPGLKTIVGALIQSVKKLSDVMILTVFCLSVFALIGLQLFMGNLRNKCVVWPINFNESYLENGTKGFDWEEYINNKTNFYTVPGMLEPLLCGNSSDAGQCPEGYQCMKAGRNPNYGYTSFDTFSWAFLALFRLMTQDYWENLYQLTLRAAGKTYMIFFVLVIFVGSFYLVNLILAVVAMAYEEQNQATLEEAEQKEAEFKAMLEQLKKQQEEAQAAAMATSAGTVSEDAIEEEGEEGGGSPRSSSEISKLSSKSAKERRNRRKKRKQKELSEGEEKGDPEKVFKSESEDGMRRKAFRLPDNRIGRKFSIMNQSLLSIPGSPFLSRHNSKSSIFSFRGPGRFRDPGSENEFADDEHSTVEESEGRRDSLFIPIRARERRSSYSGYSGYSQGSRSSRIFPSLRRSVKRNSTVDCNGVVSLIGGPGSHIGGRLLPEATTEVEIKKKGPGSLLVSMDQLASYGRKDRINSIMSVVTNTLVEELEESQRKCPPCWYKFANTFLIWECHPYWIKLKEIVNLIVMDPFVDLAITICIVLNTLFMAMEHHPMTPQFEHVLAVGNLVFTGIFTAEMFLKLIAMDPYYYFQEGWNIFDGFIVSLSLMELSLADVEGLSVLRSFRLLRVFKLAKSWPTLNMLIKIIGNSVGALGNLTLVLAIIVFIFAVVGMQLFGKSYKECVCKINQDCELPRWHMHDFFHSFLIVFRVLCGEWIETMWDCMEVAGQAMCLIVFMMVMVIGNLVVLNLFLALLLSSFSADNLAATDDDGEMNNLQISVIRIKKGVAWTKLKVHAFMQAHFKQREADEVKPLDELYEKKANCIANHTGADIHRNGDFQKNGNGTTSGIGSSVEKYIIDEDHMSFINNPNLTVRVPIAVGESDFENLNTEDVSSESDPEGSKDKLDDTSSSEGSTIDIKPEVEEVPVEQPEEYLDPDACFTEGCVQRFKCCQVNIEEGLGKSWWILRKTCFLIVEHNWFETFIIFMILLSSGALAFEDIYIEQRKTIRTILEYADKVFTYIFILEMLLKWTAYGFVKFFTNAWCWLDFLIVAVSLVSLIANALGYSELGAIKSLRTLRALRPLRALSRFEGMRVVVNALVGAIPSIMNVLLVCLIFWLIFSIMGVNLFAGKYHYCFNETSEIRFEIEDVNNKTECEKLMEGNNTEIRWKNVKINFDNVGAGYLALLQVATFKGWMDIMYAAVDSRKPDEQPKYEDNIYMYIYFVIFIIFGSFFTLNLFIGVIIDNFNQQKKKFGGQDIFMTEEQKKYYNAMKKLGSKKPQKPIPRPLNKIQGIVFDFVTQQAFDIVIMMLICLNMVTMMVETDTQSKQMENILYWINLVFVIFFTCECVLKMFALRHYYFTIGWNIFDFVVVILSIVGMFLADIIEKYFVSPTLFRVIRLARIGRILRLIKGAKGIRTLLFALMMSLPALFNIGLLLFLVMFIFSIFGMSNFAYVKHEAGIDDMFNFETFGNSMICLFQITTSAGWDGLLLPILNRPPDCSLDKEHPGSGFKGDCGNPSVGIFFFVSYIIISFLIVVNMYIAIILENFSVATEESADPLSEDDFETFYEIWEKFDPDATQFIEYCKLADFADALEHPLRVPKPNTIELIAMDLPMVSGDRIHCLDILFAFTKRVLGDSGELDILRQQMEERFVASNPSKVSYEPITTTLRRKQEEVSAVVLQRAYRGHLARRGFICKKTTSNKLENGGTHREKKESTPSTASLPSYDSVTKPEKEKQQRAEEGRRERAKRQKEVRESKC

| inhibition at 1 µM | Structure (SMILES) |
| --- | --- |
| > 70% | [2H]c1nnn2ccc(-c3cnc(O[C@@H](C)C(F)(F)F)c(F)c3)cc12 [Compound 33] |
| > 70% | COCc1nnn2ccc(-c3cnc(OC(C)(C)C(F)(F)F)c(F)c3)cc12 [Compound 26] |
| > 70% | FC(F)(F)Oc1ccc(-c2ccn3nncc3c2)cc1 [Compound 9] |
| > 70% | Cc1nnn2ccc(-c3cnc(OC4CC(F)(F)C4)c(F)c3)cc12 [Compound 12] |
| > 70% | COCc1cc(OC(F)(F)F)ccc1-c1ccn2nncc2c1 [Compound 2] |
| > 70% | Cc1nnn2ccc(-c3cnc(O[C@@H](C)C(F)(F)F)c(F)c3)cc12 [Compound 22] |
| > 70% | Fc1cc(-c2ccn3nncc3c2)cnc1OC1CC(F)(F)C1 [Compound 11] |
| > 70% | [2H]c1nnn2ccc(-c3cnc(O[C@H](C)C(F)(F)F)c(F)c3)cc12 [Compound 32] |
| > 70% | FC(F)(F)COc1ccc(-c2ccn3nncc3c2)cn1 [Compound 15] |
| > 70% | COCc1nnn2ccc(-c3cnc(OC4(C(F)(F)F)CCC4)c(F)c3)cc12 [Compound 29] |
| 30 to 70% | COCc1nnn2ccc(-c3cnc(OCC(F)(F)F)c(F)c3)cc12 [Compound 20] |
| > 70% | [2H]C([2H])(OC)c1nnn2ccc(-c3cnc(OC(C)(C)C(F)(F)F)c(F)c3)cc12 [Compound 41] |
| 30 to 70% | Cc1cc(-c2cnc(O[C@H](C)C(F)(F)F)c(F)c2)cc2cnnn12 [Compound 44] |
| > 70% | C[C@H](Oc1ncc(-c2ccn3nnc(C(F)F)c3c2)cc1F)C(F)(F)F [Compound 38] |
| > 70% | COCc1nnn2ccc(-c3ccc(OC(F)(F)F)cc3C)cc12 [Compound 13] |
| > 70% | COc1cc(OC(F)(F)F)ccc1-c1ccn2nnc(C)c2c1 [Compound 43] |
| > 70% | [2H]C([2H])([2H])c1nnn2ccc(-c3cnc(OC(C)(C)C(F)(F)F)c(F)c3)cc12 [Compound 42] |
| > 70% | [2H]c1nnn2ccc(-c3cnc(OCC(F)(F)F)c(F)c3)cc12 [Compound 34] |
| > 70% | C[C@H](Oc1ncc(-c2ccn3nnc(C(F)(F)F)c3c2)cc1F)C(F)(F)F [Compound 31] |
| 30 to 70% | Fc1cc(-c2ccn3nncc3c2)cnc1OCC(F)(F)F [Compound 10] |
| > 70% | C[C@H](Oc1ncc(-c2ccn3nncc3c2)cc1F)C(F)(F)F [Compound 18, 5-[5-fluoro-6-[(15)-2,2,2-trifluoro-1-methyl-ethoxy]-3-pyridyl]triazolo[1,5-a]pyridine] |

| inhibition at 1 µM | Structure (SMILES) |
| --- | --- |
| > 70% | [2H]C([2H])([2H])OCc1nnn2ccc(-c3cnc(OC(C)(C)C(F)(F)F)c(F)c3)cc12 [Compound 40] |
| 30 to 70% | Cc1nnn2ccc(-c3cnc(OCC(F)(F)F)c(F)c3)cc12 [Compound 8] |
| > 70% | CC(C)(Oc1ncc(-c2ccn3nnc(C(F)F)c3c2)cc1F)C(F)(F)F [Compound 39] |
| 30 to 70% | Cc1cc(OC(F)(F)F)ccc1-c1ccn2nncc2c1 [Compound 1, 5-[2-methyl-4-(trifluoromethoxy)phenyl]triazolo[1,5-a]pyridine] |
| > 70% | [2H]c1nnn2ccc(-c3cnc(OC4(C(F)(F)F)CCC4)c(F)c3)cc12 [Compound 36] |
| 30 to 70% | COCc1cc(-c2ccn3nncc3c2)ccc1OC(F)(F)F [Compound 16] |
| > 70% | CC(C)(Oc1ncc(-c2ccn3nncc3c2)cc1F)C(F)(F)F [Compound 24] |
| > 70% | Cc1cc(OC(F)(F)F)ccc1-c1ccn2nnc(C)c2c1 [Compound 3] |
| > 70% | Cc1nnn2ccc(-c3cnc(OC(C)(C)C(F)(F)F)c(F)c3)cc12 [Compound 25] |
| 30 to 70% | FC(F)Oc1ccc(-c2ccn3nncc3c2)cc1 [Compound 14] |
| > 70% | COCc1nnn2ccc(-c3cnc(O[C@@H](C)C(F)(F)F)c(F)c3)cc12 [Compound 27] |
| 30 to 70% | Cc1nnn2ccc(-c3ccc(C4(C#N)CC4)cc3)cc12 [Compound 6] |
| > 70% | [2H]c1nnn2ccc(-c3cnc(OC(C)(C)C(F)(F)F)c(F)c3)cc12 [Compound 35] |
| > 70% | C[C@@H](Oc1ncc(-c2ccn3nnc(C(F)(F)F)c3c2)cc1F)C(F)(F)F [Compound 30] |
| > 70% | Cc1nnn2ccc(-c3ccc(OC(F)(F)F)cc3)cc12 [Compound 7] |
| > 70% | Cc1cc(OC(F)(F)F)ccc1-c1cc(C)n2nncc2c1 [Compound 5] |
| > 70% | Cc1nnn2ccc(-c3cnc(O[C@H](C)C(F)(F)F)c(F)c3)cc12 [Compound 21] |
| > 70% | Cc1cc(OC(F)(F)F)ccc1-c1ccn2nnc(C(F)(F)F)c2c1 [Compound 4] |
| > 70% | Cc1cc(-c2cnc(O[C@@H](C)C(F)(F)F)c(F)c2)cc2cnnn12 [Compound 45] |
| 30 to 70% | Cc1cc(-c2cnc(OCC(F)(F)F)c(F)c2)cc2cnnn12 [Compound 46] |
| > 70% | C[C@@H](Oc1ncc(-c2ccn3nncc3c2)cc1F)C(F)(F)F [Compound 17, 5-[5-fluoro-6-[(1R)-2,2,2-trifluoro-1-methyl-ethoxy]-3-pyridyl]triazolo[1,5-a]pyridine] |

| Structure (SMILES) | inhibition at 1 µM |
| --- | --- |
| C[C@@H](Oc1ncc(-c2ccn3nnc(C(F)F)c3c2)cc1F)C(F)(F)F [Compound 37] | > 70% |
| FC1(F)C[C@H]1c1ccc(-c2ccn3nncc3c2)cc1 (single isomer, unassigned) [Compound 23-2] | > 70% |
| FC1(F)C[C@@H]1c1ccc(-c2ccn3nncc3c2)cc1 (single isomer, unassigned) [Compound 23-1] | 30 to 70% |

Source: patent publication US11918571B2, “Compounds and their methods of use” (Praxis Precision Medicines, Inc., priority 2017, dated 2024)
